This note sets out measurements from US20070072920A1, “Phenylethylamine analogs and their use for treating glaucoma” (Alcon, Inc., priority 2005, published 2007).

Test [1] deals with T1, 5-HT2 receptor in A7r5 rat vascular smooth muscle cells (Rattus norvegicus, UniProt P14842).
T1 construct: endogenous in cells; host or cells: A7r5 rat vascular smooth muscle cells
Nature of the test: 5-HT2 Functional Assay: Calcium Mobilization (FLIPR). Format: cell-based. As to conditions: for Emax: read-out: Efficacy (Emax %). The protocol: 5-HT2 Functional Assay: Calcium Mobilization
The receptor-mediated mobilization of intracellular calcium ([Ca^2+]i) was studied using the Fluorescence Imaging Plate Reader (FLIPR) instrument. Rat vascular smooth muscle cells, A7r5, were grown in a normal media of DMEM/10% FBS and 10 μg/ml gentamycin. Confluent cell monolayers were trypsinized, pelleted, and re-suspended in normal media. Cells were seeded in a 50 μL volume at a density of 20,000 cells per well in a black wall, 96-well tissue culture plate and grown for 2 days. On the day of the experiment, one vial of FLIPR Calcium Assay Kit dye was re-suspended in 50 ml of a FLIPR buffer consisting of Hank's Balanced Salt Solution (HBSS), 20 mM HEPES, and 2.5 mM probenecid, pH 7.4. Cells were loaded with the calcium-sensitive dye by addition of an equal volume (50 μl) to each well of the 96-well plate and incubated with dye for 1 h at 23° C. Typically, test compounds were stored at […] in 50% DMSO/50% Ethanol solvent. Compounds were diluted 1:50 in 20% DMSO/20% Ethanol. For dose-response experiments, compounds were diluted 1:50 in FLIPR buffer and serially diluted 1:10 to give a 5- or 8-point dose-response curve.
At the beginning of an experimental run, a signal test was performed to check the basal fluorescence signal from the dye-loaded cells and the uniformity of the signal across the plate. The basal fluorescence was adjusted between 8000-12000 counts by modifying the exposure time, the camera F-stop, or the laser power. The instrument settings for a typical assay were as follows: laser power 0.3-0.6 W, camera F-stop F/2, and exposure time 0.4 sec. An aliquot (25 μl) of the test compound was added to the existing 100 μl dye-loaded cells at a dispensing speed of 50 μl/sec. Fluorescence data were collected in real-time at 1.0 sec intervals for the first 60 sec and at 6.0 sec intervals for an additional 120 sec. Responses were measured as peak fluorescence intensity minus basal and where appropriate were expressed as a percentage of a maximum 5-HT-induced response.

Test [2] concerns lasered (hypertensive) eyes of conscious cynomolgus monkeys. Kind of test: Acute IOP Response in Lasered (Hypertensive) Eyes of Conscious Cynomolgus Monkeys. It is filed as in vivo, cynomolgus monkey. As to conditions: 300 μg topical; for % IOP change 1 hr: 1 hr after dose; for % IOP change 3 hr: 3 hr after dose; for % IOP change 6 hr: 6 hr after dose. The protocol: Acute IOP Response in Lasered (Hypertensive) Eyes of Conscious Cynomolgus Monkeys
Intraocular pressure (IOP) can be determined with an Alcon Pneumatonometer after light corneal anesthesia with 0.1% proparacaine. Eyes are washed with saline after each measurement. After a baseline IOP measurement, test compound is instilled in one 30 μL aliquot to the right eyes only of nine cynomolgus monkeys. Vehicle is instilled in the right eyes of six additional animals. Subsequent IOP measurements are taken at 1, 3, and 6 hours.

For a further test, the target named is 5-HT2 receptors (Rattus norvegicus, UniProt P14842). Kind of test: 5-HT2 Receptor Binding Assay ([125I]DOI competition). As to conditions: inhibition of [125I]DOI binding, cerebral cortex homogenates. On the set-up: species or system rat or human. As for the experimental part: 5-HT2 Receptor Binding Assay
Chain of 5-HT2 receptors (P14842 whole entry): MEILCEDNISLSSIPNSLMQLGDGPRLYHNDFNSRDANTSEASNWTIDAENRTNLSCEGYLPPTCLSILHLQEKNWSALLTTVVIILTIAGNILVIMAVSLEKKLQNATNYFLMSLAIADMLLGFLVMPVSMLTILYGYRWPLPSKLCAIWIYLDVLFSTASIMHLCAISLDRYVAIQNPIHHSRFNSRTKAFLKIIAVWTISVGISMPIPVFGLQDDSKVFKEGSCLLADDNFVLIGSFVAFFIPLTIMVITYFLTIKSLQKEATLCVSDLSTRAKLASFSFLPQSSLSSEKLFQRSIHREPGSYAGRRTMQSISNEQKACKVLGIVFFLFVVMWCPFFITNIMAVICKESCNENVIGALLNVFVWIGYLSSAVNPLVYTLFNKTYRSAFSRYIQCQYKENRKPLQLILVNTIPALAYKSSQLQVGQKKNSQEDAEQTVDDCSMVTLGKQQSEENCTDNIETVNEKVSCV
The assay mixture is incubated for 1 hour at 23° C. in polypropylene tubes and the assays terminated by rapid vacuum filtration over Whatman GF/B glass fiber filters previously soaked in 0.3% polyethyleneimine using ice-cold buffer. Test compounds (at different concentrations) are substituted for methiothepin. Filter-bound radioactivity is determined by scintillation spectrometry on a beta counter.

Setting [3] is: percentage of maximum 5-HT-induced response, A7r5 cells.

As usually defined, the EC50 is the concentration that produces a half-maximal response. Usually Emax stands for the size of the effect at its maximum, as opposed to the concentration needed. One may read the IC50 as the point on the concentration scale where inhibition reaches its midpoint. Higher therefore signals weaker potency in that assay.

Counter-ions that a name gives are not always drawn. Like-named read-outs stand apart in the source and are kept apart here.

T1 sequence (P14842 whole entry): as above

On to `COc1cccc(Cc2cc(OC)c(C[C@@H](C)N)cc2OC)c1` [Example 20, (R)-2-[2,5-Dimethoxy-4-(3-methoxy-benzyl)-phenyl]-1-methyl-ethylamine hydrochloride], for which the EC50 in test [1] amounted to 257 nM. Besides, in test [1] (setting [3]), the Emax worked out at 53%.
In the case of `COc1cc(C[C@@H](C)N)c(OC)cc1CC1CCCS1` (stereo partly drawn) [Example 13, (R)-2-[2,5-Dimethoxy-4-(tetrahydro-thiophen-2-ylmethyl)-phenyl]-1-methyl-ethylamine hydrochloride], in test [1], the EC50 stood at 560 nM. The Emax in test [1] (setting [3]) was found to be 81%.
As for `COc1cc(CC(C)N)c(OC)cc1CC[S+](C)[O-]` (stereo not shown) [Example 16, 2-[4-(2-Methanesulfinyl-ethyl)-2,5-dimethoxy-phenyl]-1-methyl-ethylamine hydrochloride], in test [1], the EC50 was found to be 870 nM. The Emax in test [1] (setting [3]) amounted to 40%.
`COc1cc(C[C@@H](C)N)c(OC)cc1Cc1ccc(Cl)cc1` [Example 21, (R)-2-[4-(4-Chloro-benzyl)-2,5-dimethoxy-phenyl]-1-methyl-ethylamine hydrochloride]: in test [1], the EC50 was 963 nM. In test [1] (setting [3]), the Emax was 39%.
Consider `COc1cc(C)c(OS(C)(=O)=O)cc1CC(C)N` (stereo not shown) [Example 8, Methanesulfonic acid 5-(2-amino-propyl)-4-methoxy-2-methyl-phenyl ester hydrochloride], for which the EC50 in test [1] was determined as 890 nM. The Emax in test [1] (setting [3]) was 30%.
The matching figures for `COc1cc(C[C@@H](C)N)c(OC)cc1Cc1nc(C)no1` [Example 2, (R)-2-[2,5-Dimethoxy-4-(3-methyl-[1,2,4]oxadiazol-5-ylmethyl)-phenyl]-1-methyl-ethylamine hydrochloride]: 1060 nM and 23%.
For the compound `CCOC(=O)Cc1cc(OC)c(C[C@@H](C)N)cc1OC` [Example 1, [(R)-4-(2-Amino-propyl)-2,5-dimethoxy-phenyl]-acetic acid ethyl ester hydrochloride], the EC50 in test [1] is 1100 nM. For the same compound, in test [1] (setting [3]), the maximal response (Emax) was 24%.
For `COc1cc(C[C@@H](C)N)c(OC)cc1CC1=NCCS1` [Example 10, (R)-2-[4-(4,5-Dihydro-thiazol-2-ylmethyl)-2,5-dimethoxy-phenyl]-1-methyl-ethylamine hydrochloride] the same measures were 600 nM and 52%.
The matching figures for `COCSCCc1cc(OC)c(C[C@@H](C)N)cc1OC` [Example 7, (R)-2-[2,5-Dimethoxy-4-(2-methoxymethylsulfanyl-ethyl)-phenyl]-1-methyl-ethylamine hydrochloride]: 91 nM and 32%.
For the compound `COCCc1cc(OC)c(C[C@@H](C)N)cc1OC.Cl` [Example 3, (R)-2-[2,5-Dimethoxy-4-(2-methoxy-ethyl)-phenyl]-1-methyl-ethylamine hydrochloride], in test [2], the “% IOP change 1 hr” value was −5.2%, the “% IOP change 3 hr” value is given as −16.3% and the “% IOP change 6 hr” value is −21.5%. Also, the EC50 in test [1] came to 78 nM. In addition, the Emax in test [1] (setting [3]) was 53%.
In the case of `COc1cc(C)c(OC(C)=O)cc1CC(C)N` (stereo not shown) [Example 9, Acetic acid 5-(2-Amino-propyl)-4-methoxy-2-methyl-phenyl ester hydrochloride], the EC50 in test [1] amounted to 4900 nM. Further, in test [1] (setting [3]), the Emax was found to be 37%.
In turn, “(R)-2-(4-Furan-2-ylmethyl-2,5-dimethoxy-phenyl)-1-methyl-ethylamine hydrochloride [Example 11]” had an IC50 on 5-HT2 receptors of 0.36 nM. Besides, in test [1] (intracellular calcium mobilization, A7r5 cells, FLIPR, read-out: EC50), the EC50 amounted to 120 nM. For the same compound, in test [1] (setting [3]), the “Efficacy (Emax %)” value worked out at 55%.
Consider `COc1cc(C[C@@H](C)N)c(OC)cc1CCCSC` [Example 5, (R)-2-[2,5-Dimethoxy-4-(3-methylsulfanyl-propyl)-phenyl]-1-methyl-ethylamine hydrochloride], for which the EC50 in test [1] was determined as 37 nM. In addition, the Emax in test [1] (setting [3]) stood at 21%.
For `COCCCc1cc(OC)c(C[C@@H](C)N)cc1OC` [Example 6, (R)-2-[2,5-Dimethoxy-4-(3-methoxy-propyl)-phenyl]-1-methyl-ethylamine hydrochloride], the EC50 in test [1] stood at 22 nM. Besides, the Emax in test [1] (setting [3]) was determined as 45%.
For `COc1cc(C[S+](C)[O-])c(OC)cc1CC(C)N` (stereo not shown) [Example 15, 2-(4-Methanesulfinylmethyl-2,5-dimethoxy-phenyl)-1-methyl-ethylamine trifluoroacetate] the same measures were 7600 nM and 37%.
Consider `COc1cc(CC(C)N)c(OC)cc1CCSC.Cl` (stereo not shown) [Example 4, 2-[2,5-Dimethoxy-4-(2-methylsulfanyl-ethyl)-phenyl]-1-methyl-ethylamine hydrochloride], for which, in test [2], the “% IOP change 1 hr” value is reported as −3.5%, the “% IOP change 3 hr” value is −14.8% and the “% IOP change 6 hr” value was −16.1%. For the same compound, the EC50 in test [1] was determined as 94 nM. The Emax in test [1] (setting [3]) was 51%.
In the case of `COc1ccccc1Cc1cc(OC)c(C[C@@H](C)N)cc1OC` [Example 19, (R)-2-[2,5-Dimethoxy-4-(2-methoxy-benzyl)-phenyl]-1-methyl-ethylamine hydrochloride], in test [1], the EC50 is 660 nM. Moreover, in test [1] (setting [3]), the Emax was determined as 22%.
The matching figures for `COc1cc(C[C@@H](C)N)c(OC)cc1Cc1ccccc1` [Example 17, (R)-2-(4-Benzyl-2,5-dimethoxy-phenyl)-1-methyl-ethylamine hydrochloride]: 310 nM and 43%.
For `COc1cc(C[C@@H](C)N)c(OC)cc1CC1CCCO1` (stereo partly drawn) [Example 12, (R)-2-[2,5-Dimethoxy-4-(tetrahydro-furan-2-ylmethyl)-phenyl]-1-methyl-ethylamine hydrochloride] the same measures were 82 nM and 73%.
For `COc1cc(CC(C)N)c(OC)cc1CSC` (stereo not shown) [Example 14, 2-(2,5-Dimethoxy-4-methylsulfanylmethyl-phenyl)-1-methyl-ethylamine; hydrochloride] the same measures were 68 nM and 52%.
For `COc1ccc(Cc2cc(OC)c(C[C@@H](C)N)cc2OC)cc1` [Example 18, (R)-2-[2,5-Dimethoxy-4-(4-methoxy-benzyl)-phenyl]-1-methyl-ethylamine hydrochloride], in test [1], the EC50 came out at 220 nM. Moreover, the Emax in test [1] (setting [3]) was found to be 23%.
